Test [1] has as its target T1, KIFC1 (Homo sapiens, UniProt Q9BW19, T368P).
T1 construct: motor domain N307-C663 with PCR-induced T368P (loop L2, disordered), pFBOH-LIC, Hi-Five insect cells, Ni-NTA purified
T1 sequence (Q9BW19 307-663 T368P): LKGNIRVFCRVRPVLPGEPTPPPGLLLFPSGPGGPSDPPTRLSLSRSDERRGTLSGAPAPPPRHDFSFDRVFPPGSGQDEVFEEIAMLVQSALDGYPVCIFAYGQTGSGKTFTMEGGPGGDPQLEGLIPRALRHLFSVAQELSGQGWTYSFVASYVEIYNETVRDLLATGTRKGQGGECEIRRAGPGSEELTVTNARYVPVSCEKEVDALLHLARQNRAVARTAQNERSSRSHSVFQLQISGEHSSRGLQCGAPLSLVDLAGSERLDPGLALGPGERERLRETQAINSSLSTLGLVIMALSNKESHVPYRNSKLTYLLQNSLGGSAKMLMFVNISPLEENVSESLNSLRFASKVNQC
The test is described as follows: X-ray crystal structure, […] A. The conditions noted are these: Mg2+; nucleotide-binding cleft; 5-fold molar excess Mg-ADP added; pH 7.5; 18 °C.

Test [2] deals with T2, KIFC3 (Homo sapiens, UniProt Q9BVG8).
T2 construct: motor domain K443-L770, p28a-LIC (EF442785 is printed beside the vector), E. coli BL21-CodonPlus (DE3)-RIL, HisTrap purified
T2 sequence (Q9BVG8 443-770): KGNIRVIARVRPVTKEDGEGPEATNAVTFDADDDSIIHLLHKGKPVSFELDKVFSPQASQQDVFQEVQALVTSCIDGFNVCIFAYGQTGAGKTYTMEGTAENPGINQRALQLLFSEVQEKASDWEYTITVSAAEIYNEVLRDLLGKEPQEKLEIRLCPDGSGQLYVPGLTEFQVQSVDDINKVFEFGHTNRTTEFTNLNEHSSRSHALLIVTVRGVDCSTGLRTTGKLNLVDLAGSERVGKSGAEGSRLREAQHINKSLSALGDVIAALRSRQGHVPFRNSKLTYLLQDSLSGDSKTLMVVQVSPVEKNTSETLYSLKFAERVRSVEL
The test is described as follows: X-ray crystal structure, […] A. The following applies: Mg2+; nucleotide-binding cleft; no added nucleotide stated; pH 7.5; 18 °C.

With `Nc1ncnc2c1ncn2[C@@H]1O[C@H](COP(=O)(O)OP(=O)(O)O)[C@@H](O)[C@H]1O` [ADP], the “X-ray crystal structure, 2.25 A” value in test [1] is “Both proteins were crystallized bound to Mg-ADP and are reported here for the first time”. In addition, the “X-ray crystal structure, 1.85 A” value in test [2] is “Both proteins were crystallized bound to Mg-ADP and are reported here for the first time”.

Source of the values: PMC5680195, “Structural basis of small molecule ATPase inhibition of a human mitotic kinesin motor protein” (Scientific Reports, 2017).
